Experimental data: paper PMC6947424, “New Targeted Gold Nanorods for the Treatment of Glioblastoma by Photodynamic Therapy” (Journal of Clinical Medicine, 2019)
Residues, ends and D or L forms follow the SMILES beside them. *: point of attachment. Pyropheophorbide(a) = C=Cc1c(C)c2cc3nc(c4c5[nH]c(cc6nc(cc1[nH]2)C(C)=C6CC)c(C)c5C(=O)C4)[C@@H](CCC(=O)*)[C@@H]3C; Hexanoyl(6-maleimido) = O=C1C=CC(=O)N1CCCCCC(=O)*

Key:
[1] = Fluorescence emission (quantum yield and lifetime); type: physicochemical; settings: ethanol; for τf (fluorescence lifetime): TCSPC, single exponential fit; for Φf (fluorescence quantum yield): excitation 412 nm, TPP in toluene as standard, 25 °C
Protocol: (§1) The setup and the protocol to evaluate the photophysical characterizations including the absorption, fluorescence, and singlet oxygen emission spectra in addition to the fluorescence and singlet oxygen lifetimes have been previously described by our team. The absorption spectra were recorded on a UV-3600 UV–vis double beam spectrophotometer (Shimadzu, Marne La Vallée, France) in the wavelength range of 200-800 nm. The measurements were performed on the molecules dispersed in ethanol in quartz cuvettes with an optical path of 10 mm. The fluorescence spectra were recorded on a Horiba Jobin Yvon Fluorolog-3 (FL3-222) spectrofluorimeter equipped with a 450W xenon lamp, a thermostated cell compartment (25 °C), a R928 (Hamamatsu, Massy, France) UV–vis photomultiplier and a liquid nitrogen cooled InGaAs infrared detector (DSS-16A020L Electro-Optical System Inc., Phoenixville, PA, USA). The excitation spectrometer used is a SPEX double grating monochromator (1200 grooves per mm blazed at 330 nm). The fluorescence was measured using the UV–vis detector through a SPEX double grating monochromator (600 grooves per mm blazed at 500 nm). The singlet oxygen production was measured using the IR detector through a SPEX double grating monochromator (600 grooves per mm blazed at 1 μm).
Fluorescence quantum yields (Φf) were determined using a tetraphenyl porphyrin (TPP) solution as the fluorescence standard (Φf = 0.11 in toluene, taking into account solvent refractive index and absorption efficiencies. For the direct determination of ^1O2 quantum yield (ΦΔ), excitation was performed with a Xe-arc, the light was separated in a SPEX 1680, 0.22 µm double monochromator. Detection at 1270 nm was carried out through a PTI S/N 1565 monochromator and the emission was monitored by a liquid nitrogen cooled Ge-detector (EO-817L, North Coast Scientific Co, OH, USA). Rose Bengal (RB) was chosen as a reference solution because of its high ^1O2 quantum yield in EtOH (ΦΔ = 0.68). The absorbance value at the excitation wavelengths (412 nm) of both the reference and the sample solutions were set to approximately 0.2 by dilution. The samples were all prepared in ethanol.
The quantum yield of fluorescence is determined by the equation (1):(1) Φf=Φf0×If/If0×[…]×(n/n0)^2 where Φf and Φf0, If and If0, DO and DO0, n and n0 are the quantum yields, intensities, optical densities and refraction indices of the sample and reference, respectively.
Fluorescence lifetimes were measured by Time-Correlated Single Photon Counting (TCSPC) using for excitation a pulsed laser diode LDH-P-C-405 coupled with a PDL 800-D driver (both from PicoQuant GmbH, Berlin, Germany) emitting at 408 nm (FWHM < 70 ps, 1 MHz) and an SPCM-AQR-15 avalanche photodiode (EG & G, Vaudreuil, Canada) coupled with a 650 nm (±10 nm) interference long-wave pass filter as the detection system. The acquisition system was a PicoHarp 300 module with a PHR-800 four-channel router (both from PicoQuant GmbH, Berlin, Germany). Fluorescence decays were recorded using the single photon counting method (four optical faced quartz cells for pure products in ethanol). Data were collected, and up to 1000 counts were accumulated in the maximum channel and analyzed using Fluofit TCSPC software (PicoQuant GmbH, Berlin, Germany) based on iterative reconvolution using a Levensberg-Marquandt algorithm. Singlet oxygen lifetime measurements have been performed on a TEMPRO-01 spectrophotometer (Horiba Jobin Yvon, Palaiseau, France). The apparatus was composed of a pulsed diode excitation source SpectraLED-415 emitting at 415 nm, a cuvette compartment, a Seya–Namioka type emission monochromator (600–2000 nm), and an H10330-45 near-infrared photomultiplier tube with a thermoelectric cooler (Hamamatsu, Massy, France) as the detection system. The system was monitored by a single photon counting controller FluoroHub-B and the software DataStation and DAS6 (Horiba Jobin Yvon, Palaiseau, France). […]

UV-vis absorption = type: physicochemical; settings: ethanol, Soret band
Protocol: as §1
The photophysical properties at the different synthetic stages of the hybrid AuNRs@PEG-MI-K(Pyro)DKPPR-OH, including the peptide derivatives as intermediates, were studied and compared to that of free Pyro. These properties include the UV-vis absorption, the florescence emission (quantum yield (Φf) and lifetime (τf)) and the ^1O2 production (quantum yield (ΦΔ) and lifetime (τΔ)). To determine these properties, the optical density (OD) of the Soret band of the Pyro component (412 nm) was adjusted at about 0.2. Controls, such as TPP dissolved in toluene, as a standard for fluorescence emission, and RB dissolved in ethanol, as a standard for ^1O2 production, were used. Ethanol was chosen to dissolve the studied molecules since it is a convenient solvent for the detection of fluorescence and ^1O2 emission. […]

SMILES	τf (fluorescence lifetime) [1]	Φf (fluorescence quantum yield) [1]	λmax (UV-vis absorption)
C=Cc1c(C)c2cc3nc(c4c5[nH]c(cc6nc(cc1[nH]2)C(C)=C6CC)c(C)c5C(=O)C4)[C@@H](CCC(=O)O)[C@@H]3C [Pyro, pyropheophorbide-a, reference compound]	6.8 ns	0.38	412 nm
C=Cc1c(C)c2cc3nc(c4c5[nH]c(cc6nc(cc1[nH]2)C(C)=C6CC)c(C)c5C(=O)C4)[C@@H](CCC(=O)NCCCC[C@H](NC(=O)CCCCCN1C(=O)C=CC1=O)C(=O)N[C@@H](CC(=O)O)C(=O)N[C@@H](CCCCN)C(=O)N1CCC[C@H]1C(=O)N1CCC[C@H]1C(=O)N[C@@H](CCCNC(=N)N)C(=O)O)[C@@H]3C [MI-K(Pyro)DKPPR-OH] ({Hexanoyl(6-maleimido)}-K(Pyropheophorbide(a))DKPPR-OH)	6.5 ns	0.29	412 nm
